Measurements: ChEMBL document CHEMBL3991601, “The target landscape of clinical kinase drugs” (Science, 2017)
pKd: −log10 of the molar value. Where a name gives a salt, the structure may show the parent alone. The source made the active and inactive calls. Cut-off read from the data, not from the text of the source, for most assays here: actives have a measured Kd and inactives only a lower limit.

Legend:
[1] = target: T1, Breakpoint cluster region protein (Homo sapiens, UniProt P11274)
T1 sequence (P11274 whole entry): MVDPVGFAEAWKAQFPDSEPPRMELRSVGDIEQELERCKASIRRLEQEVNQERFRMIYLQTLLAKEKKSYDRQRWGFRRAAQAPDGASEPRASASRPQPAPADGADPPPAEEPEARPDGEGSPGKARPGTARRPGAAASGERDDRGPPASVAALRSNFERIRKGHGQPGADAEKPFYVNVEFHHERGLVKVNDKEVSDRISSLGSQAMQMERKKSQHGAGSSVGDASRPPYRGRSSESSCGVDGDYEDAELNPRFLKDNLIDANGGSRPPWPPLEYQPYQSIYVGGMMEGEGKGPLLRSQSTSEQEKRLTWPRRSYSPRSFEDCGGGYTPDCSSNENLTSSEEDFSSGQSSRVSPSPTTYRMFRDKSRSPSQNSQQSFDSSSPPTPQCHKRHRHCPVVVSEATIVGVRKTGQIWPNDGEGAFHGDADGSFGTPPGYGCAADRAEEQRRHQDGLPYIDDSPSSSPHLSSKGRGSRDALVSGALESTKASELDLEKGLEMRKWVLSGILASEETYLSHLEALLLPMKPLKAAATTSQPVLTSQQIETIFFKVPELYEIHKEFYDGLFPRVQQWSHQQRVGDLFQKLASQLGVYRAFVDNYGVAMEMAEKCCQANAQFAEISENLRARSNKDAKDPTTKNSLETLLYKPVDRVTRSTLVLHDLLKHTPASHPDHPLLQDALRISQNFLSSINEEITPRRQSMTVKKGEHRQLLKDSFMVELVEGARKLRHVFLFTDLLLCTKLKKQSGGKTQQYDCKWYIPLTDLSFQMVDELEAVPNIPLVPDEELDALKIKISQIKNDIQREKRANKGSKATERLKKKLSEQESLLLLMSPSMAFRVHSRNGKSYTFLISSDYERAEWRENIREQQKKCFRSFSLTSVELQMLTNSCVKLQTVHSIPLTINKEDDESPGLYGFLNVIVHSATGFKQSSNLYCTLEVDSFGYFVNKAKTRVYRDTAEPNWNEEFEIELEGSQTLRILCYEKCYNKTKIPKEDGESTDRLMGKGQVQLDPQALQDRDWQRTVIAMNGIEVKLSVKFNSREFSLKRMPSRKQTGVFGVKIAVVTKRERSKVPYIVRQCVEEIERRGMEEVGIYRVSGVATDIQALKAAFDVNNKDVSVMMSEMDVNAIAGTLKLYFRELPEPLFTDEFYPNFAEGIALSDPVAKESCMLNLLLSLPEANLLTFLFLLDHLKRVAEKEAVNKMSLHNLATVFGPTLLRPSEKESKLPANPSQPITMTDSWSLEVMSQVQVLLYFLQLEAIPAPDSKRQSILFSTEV

[2] = target: T2, Scaffold protein ILK (Homo sapiens, UniProt Q13418)
T2 sequence (Q13418 whole entry): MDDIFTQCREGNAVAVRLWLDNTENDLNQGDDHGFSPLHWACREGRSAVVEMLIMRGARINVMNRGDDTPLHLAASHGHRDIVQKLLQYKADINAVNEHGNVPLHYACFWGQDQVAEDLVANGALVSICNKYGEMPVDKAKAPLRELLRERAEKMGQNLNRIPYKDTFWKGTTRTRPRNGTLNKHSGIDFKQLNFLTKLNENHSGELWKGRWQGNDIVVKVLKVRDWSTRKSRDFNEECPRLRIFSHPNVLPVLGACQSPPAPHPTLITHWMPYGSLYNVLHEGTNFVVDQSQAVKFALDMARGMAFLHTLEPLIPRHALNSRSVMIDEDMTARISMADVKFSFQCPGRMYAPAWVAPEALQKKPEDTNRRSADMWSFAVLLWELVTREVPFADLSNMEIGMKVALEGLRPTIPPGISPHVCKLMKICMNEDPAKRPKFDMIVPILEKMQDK

[3] = target: T3, General transcription and DNA repair factor IIH helicase subunit XPD (Homo sapiens, UniProt P18074); settings: read-out: Kd apparent; k-562, colo 205, sk-n-be(2) and mv-4-11
T3 sequence (P18074 whole entry): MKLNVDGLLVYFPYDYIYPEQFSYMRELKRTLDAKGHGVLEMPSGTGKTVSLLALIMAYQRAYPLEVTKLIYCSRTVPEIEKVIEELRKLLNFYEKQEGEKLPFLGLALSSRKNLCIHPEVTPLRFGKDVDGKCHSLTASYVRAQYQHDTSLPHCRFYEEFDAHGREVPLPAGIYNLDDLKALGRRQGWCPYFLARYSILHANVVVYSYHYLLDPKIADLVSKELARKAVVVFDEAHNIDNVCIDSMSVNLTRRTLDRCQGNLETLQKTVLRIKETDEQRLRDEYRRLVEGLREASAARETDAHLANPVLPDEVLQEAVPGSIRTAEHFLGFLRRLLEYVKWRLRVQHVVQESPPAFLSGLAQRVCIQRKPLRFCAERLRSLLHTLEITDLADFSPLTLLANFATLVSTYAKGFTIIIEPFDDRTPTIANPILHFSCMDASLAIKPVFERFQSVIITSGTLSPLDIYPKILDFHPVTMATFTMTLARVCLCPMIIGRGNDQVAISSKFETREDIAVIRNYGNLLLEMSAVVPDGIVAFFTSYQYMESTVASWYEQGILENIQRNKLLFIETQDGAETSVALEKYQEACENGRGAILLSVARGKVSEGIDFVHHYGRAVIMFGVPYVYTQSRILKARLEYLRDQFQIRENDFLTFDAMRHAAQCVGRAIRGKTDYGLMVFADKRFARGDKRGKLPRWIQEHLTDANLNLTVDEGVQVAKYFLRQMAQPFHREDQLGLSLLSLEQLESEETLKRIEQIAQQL
Note: in the data inactive means no Kd found up to 30 µM.

Cn1cc(-c2cnc3ccc4ccc(CS(=O)(=O)NCc5ccccn5)cc4c(=O)c3c2)cn1 [MK-8033]
Kd [1]: > 30 µM (inactive) | Kd [2]: > 30 µM (inactive) | Kd [3]: > 30 µM (inactive)

Cn1cc(C2=C(c3cn(C4CCN(Cc5ccccn5)CC4)c4ccccc34)C(=O)NC2=O)c2ccccc21 [ENZASTAURIN]
Kd [1]: > 30 µM (inactive) | Kd [2]: > 30 µM (inactive) | Kd [3]: > 30 µM (inactive)

CN(C[C@@H]1COCCO1)S(=O)(=O)Nc1ccc2ccc3ncc(-c4cnn(C)c4)cc3c(=O)c2c1 [MK-2461]
Kd [1]: > 30 µM (inactive) | Kd [2]: > 30 µM (inactive) | Kd [3]: > 30 µM (inactive)

CN1C/C=C/CCOc2cccc(c2)-c2ccnc(n2)Nc2cccc(c2)C1 [ZOTIRACICLIB]
Kd [1]: > 30 µM (inactive) | Kd [2]: > 30 µM (inactive) | pKd [3]: 6.50

CC(=O)c1cnc2ccc(-c3cc(Cl)c(O)c(Cl)c3)nc2c1N[C@H]1CC[C@H](CN(C)C)CC1
Kd [1]: 0.014 µM (active) | Kd [3]: > 30 µM (inactive)

Cc1cc(Nc2ncc(Cl)c(Nc3ccccc3S(=O)(=O)C(C)C)n2)c(OC(C)C)cc1C1CCNCC1 [CERITINIB]
Kd [1]: > 30 µM (inactive) | Kd [2]: > 30 µM (inactive) | Kd [3]: > 30 µM (inactive)

CC(C)(C)c1nc(-c2cccc(NS(=O)(=O)c3c(F)cccc3F)c2F)c(-c2ccnc(N)n2)s1 [DABRAFENIB]
Kd [1]: > 30 µM (inactive) | Kd [2]: > 30 µM (inactive) | Kd [3]: > 30 µM (inactive)

Cc1nc2cc(-n3ncc(C(=O)c4cc5ccccc5[nH]4)c3N)ccc2[nH]1 [FGFR INHIBITOR DEBIO 1347]
Kd [1]: > 30 µM (inactive) | Kd [2]: > 30 µM (inactive) | Kd [3]: > 30 µM (inactive)

CCn1cc(-c2ccnc3[nH]c(-c4cccc(CN(C)C)c4)cc23)c(-c2ccc(NC(=O)N(C)C)cc2)n1 [GSK-1070916]
Kd [1]: > 30 µM (inactive) | Kd [2]: > 30 µM (inactive)

C[C@@H](N)c1ccc(C(=O)Nc2ccnc3[nH]ccc23)cc1 [Y-39983]
Kd [1]: > 30 µM (inactive) | Kd [2]: > 30 µM (inactive) | Kd [3]: > 30 µM (inactive)

N#CC1(c2ccc(NC(=O)c3cccnc3NCc3ccncc3)cc2)CCCC1 [RIVOCERANIB]
Kd [1]: > 30 µM (inactive) | Kd [2]: > 30 µM (inactive) | Kd [3]: > 30 µM (inactive)

CCNC(=O)C#Cc1ccc2c(c1)NC(=O)/C2=C(\Nc1ccc(CN(C)C)cc1)c1ccccc1
Kd [1]: > 30 µM (inactive) | Kd [2]: > 30 µM (inactive) | Kd [3]: > 30 µM (inactive)

CC(C)c1cc(CNc2nc(Nc3cc(C4CC4)[nH]n3)cc(N3CCN(C)CC3)n2)on1 [XL-228]
Kd [1]: 0.003 µM (active) | Kd [2]: > 30 µM (inactive) | Kd [3]: 0.953 µM (active)

CO[C@H]1C[C@@H]2CC[C@@H](C)[C@@](O)(O2)C(=O)C(=O)N2CCCC[C@H]2C(=O)O[C@H]([C@H](C)C[C@@H]2CC[C@@H](O)[C@H](OC)C2)CC(=O)[C@H](C)/C=C(\C)[C@@H](O)[C@@H](OC)C(=O)[C@H](C)C[C@H](C)/C=C/C=C/C=C/1C [SIROLIMUS]
Kd [1]: > 30 µM (inactive) | Kd [2]: > 30 µM (inactive) | Kd [3]: > 30 µM (inactive)

COc1cc(Nc2ncc3c(n2)-c2ccc(Cl)cc2C(c2c(F)cccc2OC)=NC3)ccc1C(=O)O [ALISERTIB]
Kd [1]: > 30 µM (inactive) | Kd [2]: > 30 µM (inactive) | Kd [3]: > 30 µM (inactive)

O=C(Nc1cc(C(F)(F)F)cc(C(F)(F)F)c1)c1cc(Cl)ccc1O [IMD-0354]
Kd [1]: > 30 µM (inactive) | Kd [2]: > 30 µM (inactive) | Kd [3]: > 30 µM (inactive)

Cc1cc(Nc2ncnc3ccc(NC4=NC(C)(C)CO4)cc23)ccc1Oc1ccn2ncnc2c1 [TUCATINIB]
Kd [1]: > 30 µM (inactive) | Kd [2]: > 30 µM (inactive) | Kd [3]: > 30 µM (inactive)

CCS(=O)(=O)c1cccc(-c2cc(C(=O)NC3CCN(C)CC3)c(C)c3[nH]c4ncc(C)cc4c23)c1 [TAK-901]
Kd [1]: 0.133 µM (active) | Kd [2]: > 30 µM (inactive)

O=C(Cc1ccc(-c2ccc(OCCN3CCOCC3)cc2)cn1)NCc1ccccc1 [TIRBANIBULIN]
Kd [1]: > 30 µM (inactive) | Kd [2]: > 30 µM (inactive) | Kd [3]: > 30 µM (inactive)

COc1cc2ncnc(Oc3cccc(NC(=O)Nc4cc(C(C)(C)C(F)(F)F)on4)c3)c2cc1OC [CEP-32496]
Kd [1]: 0.041 µM (active) | Kd [2]: > 30 µM (inactive) | Kd [3]: > 30 µM (inactive)

N#CC[C@H](C1CCCC1)n1cc(-c2ncnc3[nH]ccc23)cn1 [RUXOLITINIB]
Kd [1]: > 30 µM (inactive) | Kd [2]: > 30 µM (inactive) | Kd [3]: > 30 µM (inactive)

CCS(=O)(=O)N1CCN(c2ccc(Nc3ncc(C(N)=O)c(NC4CC4)n3)cc2)CC1 [Cerdulatinib Hydrochloride]
Kd [1]: > 30 µM (inactive) | Kd [2]: > 30 µM (inactive) | Kd [3]: > 30 µM (inactive)

Cc1cc(C(=O)NOCCO)c(Nc2ccc(I)cc2F)n(C)c1=O [AZD-8330]
Kd [1]: > 30 µM (inactive) | Kd [2]: > 30 µM (inactive) | Kd [3]: > 30 µM (inactive)

C#Cc1cccc(Nc2ncnc3cc(OC)c(OCCCCCCC(=O)NO)cc23)c1 [CUDC-101]
Kd [1]: > 30 µM (inactive) | Kd [2]: > 30 µM (inactive) | Kd [3]: > 30 µM (inactive)

NC1(c2ccc(-c3nc4ccn5c(=O)[nH]nc5c4cc3-c3ccccc3)cc2)CCC1 [MK-2206]
Kd [1]: > 30 µM (inactive) | Kd [2]: > 30 µM (inactive) | Kd [3]: > 30 µM (inactive)

Cc1nc(NC(=O)N2CCC[C@H]2C(N)=O)sc1-c1ccnc(C(C)(C)C(F)(F)F)c1 [ALPELISIB]
Kd [1]: > 30 µM (inactive) | Kd [3]: > 30 µM (inactive)

CNC(=O)c1nn(C)c2c1C(C)(C)Cc1cnc(Nc3ccc(N4CCN(C)CC4)cc3)nc1-2 [MILCICLIB]
Kd [1]: 0.685 µM (active) | Kd [2]: > 30 µM (inactive)

O=C(Nc1nc2cccc(-c3ccc(CN4CCS(=O)(=O)CC4)cc3)n2n1)C1CC1 [FILGOTINIB]
Kd [1]: > 30 µM (inactive) | Kd [2]: > 30 µM (inactive)

Cc1nc(Nc2n[nH]c3c2CN(C(=O)N[C@H](CN(C)C)c2ccccc2)C3(C)C)c2sccc2n1 [PF-03758309]
Kd [1]: 1.28 µM (active) | Kd [3]: 0.002 µM (active)

Cc1csc(-c2nnc(Nc3ccc(Oc4ncccc4-c4ccnc(N)n4)cc3)c3ccccc23)c1 [AMG-900]
Kd [1]: 1.97 µM (active) | Kd [3]: > 30 µM (inactive)

COc1c(OCCCN2CCOCC2)ccc2c1N=C(NC(=O)c1cnc(N)nc1)N1CCN=C21 [COPANLISIB]
Kd [1]: > 30 µM (inactive) | Kd [2]: > 30 µM (inactive)

NC(=O)Nc1cc(-c2cccc(F)c2)sc1C(=O)N[C@H]1CCCNC1 [AZD-7762]
Kd [2]: > 30 µM (inactive) | Kd [3]: > 30 µM (inactive)

Cn1cc(-c2cnn3c(N)c(Br)c([C@@H]4CCCNC4)nc23)cn1 [SCH-900776]
Kd [1]: > 30 µM (inactive) | Kd [3]: > 30 µM (inactive)
